Laboratory results as given in US20240277620A1, “MIXED SOLVENTS FOR SPRAY DRYING FOR PREPARATION OF AMORPHOUS SOLID DISPERSIONS” (Lonza Bend Inc., priority 2021, published 2024).
Several values for one entry are separate records, joined by “and”; a condition that tells them apart may be missing. Equal entries are not always repeated. Each block holds one compound with its values, some of them ahead of it.

Experiment: Determination of saturation concentration of drug in solvent (TGA of filtered saturated solution)

Concentration (EtOAc:EtOH 0:100, 25° C.): 1.69 mg/mL
Concentration (wt %) (EtOAc:EtOH 0:100, 25° C.): 0.214 wt %
Concentration (EtOAc:EtOH 15:85, 25° C.): 2.38 mg/mL
Concentration (wt %) (EtOAc:EtOH 15:85, 25° C.): 0.30 wt %
Concentration (EtOAc:EtOH 40:60, 25° C.): 3.40 mg/mL
Concentration (wt %) (EtOAc:EtOH 40:60, 25° C.): 0.408 wt %
Concentration (EtOAc:EtOH 55:45, 25° C.): 4.69 mg/mL
Concentration (wt %) (EtOAc:EtOH 55:45, 25° C.): 0.518 wt %
Concentration (EtOAc:EtOH 70:30, 25° C.): 3.39 mg/mL
Concentration (wt %) (EtOAc:EtOH 70:30, 25° C.): 0.392 wt %
Concentration (EtOAc:EtOH 85:15, 25° C.): 2.03 mg/mL
Concentration (wt %) (EtOAc:EtOH 85:15, 25° C.): 0.230 wt %
Concentration (EtOAc:EtOH 100:0, 25° C.): 0.69 mg/mL
Concentration (wt %) (EtOAc:EtOH 100:0, 25° C.): 0.076 wt %
Solubility (wt %) (MeOAc/MeOH, MeOH 0 wt %): 0.091 wt %
Solubility (wt %) (MeOAc/MeOH, MeOH 15 wt %): 0.496 wt %
Solubility (wt %) (MeOAc/MeOH, MeOH 30 wt %): 0.763 wt %
Solubility (wt %) (MeOAc/MeOH, MeOH 45 wt %): 0.962 wt %
Solubility (wt %) (MeOAc/MeOH, MeOH 60 wt %): 0.868 wt %
Solubility (wt %) (MeOAc/MeOH, MeOH 85 wt %): 0.486 wt %
Solubility (wt %) (MeOAc/MeOH, MeOH 100 wt %): 0.371 wt %
Concentration (MeOAc:MeOH 0:100, 25° C.): 2.94 mg/mL
Concentration (wt %) (MeOAc:MeOH 0:100, 25° C.): 0.371 wt %
Concentration (MeOAc:MeOH 15:85, 25° C.): 3.94 mg/mL
Concentration (wt %) (MeOAc:MeOH 15:85, 25° C.): 0.486 wt %
Concentration (MeOAc:MeOH 40:60, 25° C.): 7.32 mg/mL
Concentration (wt %) (MeOAc:MeOH 40:60, 25° C.): 0.868 wt %
Concentration (MeOAc:MeOH 55:45, 25° C.): 8.31 mg/mL
Concentration (wt %) (MeOAc:MeOH 55:45, 25° C.): 0.961 wt %
Concentration (MeOAc:MeOH 70:30, 25° C.): 6.76 mg/mL
Concentration (wt %) (MeOAc:MeOH 70:30, 25° C.): 0.763 wt %
Concentration (MeOAc:MeOH 85:15, 25° C.): 4.51 mg/mL
Concentration (wt %) (MeOAc:MeOH 85:15, 25° C.): 0.496 wt %
Concentration (MeOAc:MeOH 100:0, 25° C.): 0.85 mg/mL
Concentration (wt %) (MeOAc:MeOH 100:0, 25° C.): 0.091 wt %
SMILES: Cc1cn(-c2cc(NC(=O)c3ccc(C)c(Nc4nccc(-c5cccnc5)n4)c3)cc(C(F)(F)F)c2)cn1 [Nilotinib, nilotinib]

Solubility (wt %) (EtOAc/MeOH, MeOH 0 wt %): 0.065 wt % and 0.091 wt %
Solubility (wt %) (EtOAc/MeOH, MeOH 15 wt %): 0.500 wt %
Solubility (wt %) (EtOAc/MeOH, MeOH 20 wt %): 0.430 wt %
Solubility (wt %) (EtOAc/MeOH, MeOH 30 wt %): 0.847 wt %
Solubility (wt %) (EtOAc/MeOH, MeOH 35 wt %): 0.593 wt %
Solubility (wt %) (EtOAc/MeOH, MeOH 45 wt %): 1.028 wt %
Solubility (wt %) (EtOAc/MeOH, MeOH 50 wt %): 0.497 wt %
Solubility (wt %) (EtOAc/MeOH, MeOH 60 wt %): 0.878 wt %
Solubility (wt %) (EtOAc/MeOH, MeOH 65 wt %): 0.481 wt %
Solubility (wt %) (EtOAc/MeOH, MeOH 80 wt %): 0.370 wt %
Solubility (wt %) (EtOAc/MeOH, MeOH 85 wt %): 0.532 wt %
Solubility (wt %) (EtOAc/MeOH, MeOH 100 wt %): 0.153 wt % and 0.371 wt %
Concentration (EtOAc:EtOH 0:100, 25° C.): 1.03 mg/mL
Concentration (wt %) (EtOAc:EtOH 0:100, 25° C.): 0.130 wt %
Concentration (EtOAc:EtOH 15:85, 25° C.): 1.74 mg/mL
Concentration (wt %) (EtOAc:EtOH 15:85, 25° C.): 0.22 wt %
Concentration (EtOAc:EtOH 40:60, 25° C.): 2.67 mg/mL
Concentration (wt %) (EtOAc:EtOH 40:60, 25° C.): 0.321 wt %
Concentration (EtOAc:EtOH 55:45, 25° C.): 2.89 mg/mL
Concentration (wt %) (EtOAc:EtOH 55:45, 25° C.): 0.341 wt %
Concentration (EtOAc:EtOH 70:30, 25° C.): 3.20 mg/mL
Concentration (wt %) (EtOAc:EtOH 70:30, 25° C.): 0.370 wt %
Concentration (EtOAc:EtOH 85:15, 25° C.): 2.17 mg/mL
Concentration (wt %) (EtOAc:EtOH 85:15, 25° C.): 0.246 wt %
Concentration (EtOAc:EtOH 100:0, 25° C.): 0.36 mg/mL
Concentration (wt %) (EtOAc:EtOH 100:0, 25° C.): 0.040 wt %
Solubility (wt %) (MeOAc/MeOH, MeOH 0 wt %): 0.065 wt %
Solubility (wt %) (MeOAc/MeOH, MeOH 20 wt %): 0.403 wt %
Solubility (wt %) (MeOAc/MeOH, MeOH 35 wt %): 0.482 wt %
Solubility (wt %) (MeOAc/MeOH, MeOH 50 wt %): 0.426 wt %
Solubility (wt %) (MeOAc/MeOH, MeOH 65 wt %): 0.341 wt %
Solubility (wt %) (MeOAc/MeOH, MeOH 80 wt %): 0.250 wt %
Solubility (wt %) (MeOAc/MeOH, MeOH 100 wt %): 0.153 wt %
Concentration (MeOAc:MeOH 0:100, 25° C.): 1.21 mg/mL
Concentration (wt %) (MeOAc:MeOH 0:100, 25° C.): 0.153 wt %
Concentration (MeOAc:MeOH 20:80, 25° C.): 2.22 mg/mL
Concentration (wt %) (MeOAc:MeOH 20:80, 25° C.): 0.250 wt %
Concentration (MeOAc:MeOH 35:65, 25° C.): 2.85 mg/mL
Concentration (wt %) (MeOAc:MeOH 35:65, 25° C.): 0.341 wt %
Concentration (MeOAc:MeOH 50:50, 25° C.): 3.65 mg/mL
Concentration (wt %) (MeOAc:MeOH 50:50, 25° C.): 0.426 wt %
Concentration (MeOAc:MeOH 65:35, 25° C.): 4.23 mg/mL
Concentration (wt %) (MeOAc:MeOH 65:35, 25° C.): 0.482 wt %
Concentration (MeOAc:MeOH 80:20, 25° C.): 3.63 mg/mL
Concentration (wt %) (MeOAc:MeOH 80:20, 25° C.): 0.403 wt %
Concentration (MeOAc:MeOH 100:0, 25° C.): 0.61 mg/mL
Concentration (wt %) (MeOAc:MeOH 100:0, 25° C.): 0.065 wt %
SMILES: O=C(O)c1cc(/N=N/c2ccc(S(=O)(=O)Nc3ccccn3)cc2)ccc1O [Sulfasalazine, sulfasalazine]
